# Measurements published in patent US12350277B2, “Compositions and methods of use for treating aberrant inflammation in peri-ocular secretory glands or at the ocular surface” (CS Pharmaceuticals Limited, priority 2017, dated 2025).
# Like-named read-outs stand apart in the source and are kept apart here.
# Key:
# [1] = test system: models of lung inflammation; conditions: mouse, intratracheal dosing; cited from earlier work
# [2] = test system: models of lung inflammation; conditions: rat, intratracheal dosing; cited from earlier work
# [3] = ocular exposure and pharmacokinetics after BID eyelid cream administration in minipigs; assay type: in vivo, Hanford minipigs; conditions: for concentration at 8 h: 8 hours post final dose
# Protocol: (§1) To determine the ocular exposure and pharmacokinetics following topical cream administration to the eyelids, the cream containing 2% of compound of Formula I was applied BID to eyelids of 8 Hanford minipigs for 7 days and one additional application on day 8 for a total of 15 topical doses. After the last dose on day 8, two animals each were euthanized at 2, 4, 8, and 24 hours after the final dose, and eyes were collected for dissection into the following tissues and fluids: eyelids (including palpebral conjunctiva), bulbar conjunctiva, cornea, iris/ciliary body (ICB), and aqueous humor (AQH). Plasma was also collected (prior to dose application on Days 1 and 8, and prior to euthanasia). […] Meibum was believed to be only one lipid compartment in the eyelids that could act as a depot for lipophilic compounds. […] and other fatty tissues were others. Attempts to express meibum from the ducts, thereby rendering the eyelid itself unusable for further analysis, would have not permitted assessment of drug content in other potential lipid structures in the eyelids. Thus, the decision was made to assess drug exposure in the eyelid as an intact tissue to capture all potential drug depots.
# Three different extraction and analytical methods were developed for the determination of the compound of Formula I in i) plasma and aqueous humor; ii) bulbar conjunctiva, cornea, ICB; iii) eyelids. Assay ranges were 0.1-100 ng/mL, 1-1000 ng/g, and 1-1000 ng/g, respectively. Briefly, analytical methods were as follows: i) plasma and aqueous humor standards were from minipig and rabbit, respectively; ii) bulbar conjunctiva, cornea, ICB standard was rabbit cornea; iii) eyelid standard was pig skin. The internal standard working solution for analytical purposes was comprised of 20.0 ng/mL ^13C2, ^15N-labeled compound of Formula I in acetonitrile with 1% formic acid (v/v) which was being added to each sample. The tissue/fluid sample extraction procedure involved i) plasma/aqueous humor sample; ii) bulbar conjunctiva, cornea, ICB homogenization in acetonitrile; iii) eyelid digestion in 1:1 acetonitrile:ammonium hydroxide solution for 1.5 hours at 37° C. followed by acetonitrile addition, homogenization, and neutralization with formic acid; in all cases followed by addition of internal standard working solution, vortexing and centrifugation. Analysis of the samples was then carried out with LC-MS/MS, employing mobile phases A (Water with 0.1% formic acid) and B (acetonitrile with 0.1% formic acid).
# protein binding = assay type: in vitro ADME
# glucocorticoid receptor [4] = target: T1, glucocorticoid receptor (Homo sapiens, UniProt P04150); conditions: variety of human in vitro assays; cited from earlier work
# T1 sequence (P04150 1-777): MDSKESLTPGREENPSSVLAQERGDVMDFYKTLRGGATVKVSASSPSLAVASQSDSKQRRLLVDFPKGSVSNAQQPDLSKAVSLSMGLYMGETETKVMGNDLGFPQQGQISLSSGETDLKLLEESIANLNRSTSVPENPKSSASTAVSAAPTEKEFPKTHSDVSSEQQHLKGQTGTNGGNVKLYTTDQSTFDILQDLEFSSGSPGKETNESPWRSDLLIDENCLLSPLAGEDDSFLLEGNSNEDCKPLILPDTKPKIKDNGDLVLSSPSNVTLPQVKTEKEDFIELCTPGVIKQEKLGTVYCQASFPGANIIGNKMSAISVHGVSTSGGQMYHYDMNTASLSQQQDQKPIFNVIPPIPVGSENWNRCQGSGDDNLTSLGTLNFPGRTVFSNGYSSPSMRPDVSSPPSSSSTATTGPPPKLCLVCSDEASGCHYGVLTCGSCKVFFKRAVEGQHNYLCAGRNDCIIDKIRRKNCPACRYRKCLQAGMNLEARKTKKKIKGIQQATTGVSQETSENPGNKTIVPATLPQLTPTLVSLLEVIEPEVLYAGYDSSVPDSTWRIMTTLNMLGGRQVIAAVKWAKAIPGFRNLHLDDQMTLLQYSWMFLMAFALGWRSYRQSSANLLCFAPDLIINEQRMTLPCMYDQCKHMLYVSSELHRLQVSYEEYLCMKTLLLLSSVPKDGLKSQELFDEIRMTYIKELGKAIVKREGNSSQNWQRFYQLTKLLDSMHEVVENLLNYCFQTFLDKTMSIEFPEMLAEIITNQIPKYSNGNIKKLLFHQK
# [5] = in vitro skin penetration, human cadaver skin in Franz-type diffusion cells; assay type: in vitro ADME
# Protocol: An in vitro skin penetration model using human cadaver skin mounted in Franz-type diffusion cells (FDC) was chosen to determine the skin permeation of the compound of Formula I applied as a 2% cream to the epidermal surface. Transdermal flux into a receptor fluid was measured over a period of 46 hours after application of the formulations. At the end of the 46-hour incubation period, the skin was tape-stripped and heat separated based on an established method and the concentration of the compound of Formula I was measured in the residual epidermis and dermis. The applied formulations comprised of 2% w/w compound of Formula I, 46% w/w white petrolatum, 8% w/w mineral oil, 8% w/w propylene glycol, 6.6% w/w ST-cyclomethicone-SNF, 3.3% w/w emulsifier 10, 2% w/w ST-elastomer-10, 0.08% w/w methylparaben, 0.06% w/w sodium phosphate dibasic anhydrous, 0.05% w/w citric acid anhydrous, 0.02% w/w propylparaben, and q.s. purified water. Vehicle cream comprised of 48% w/w white petrolatum, 8% w/w mineral oil, 8% w/w propylene glycol, 6.6% w/w ST-cyclomethicone-SNF, 3.3% w/w emulsifier 10, 2% w/w ST-elastomer-10, 0.08% w/w methylparaben, 0.06% w/w sodium phosphate dibasic anhydrous, 0.05% w/w citric acid anhydrous, 0.02% w/w propylparaben, and q.s. purified water was also tested as a negative control. […]
# A high performance liquid chromatography UV (“HPLC-UV”) analytical method and an LC-MS/MS method for detecting the compound of Formula I in the skin and in the receptor fluid samples, respectively, was implemented and employed mobile phases A (0.05 mL trifluoroacetic acid (TFA) in 1000 mL LC-MS grade water) and B (0.05 mL TFA in 1000 mL LC-MS grade acetonitrile). The lower level of quantification (LLOQ) for the compound of Formula I for the LC-MS/MS method was determined to be in the 6-10 ng/mL range.
# NFκB pathway = conditions: A549, HeLa, MG63, 16HBE, and H9 cell lines; IL-1β / TNFα stimulation; cited from earlier work
# [6] = test system: rabbits, atropine sulfate model of dry eye disease; test: tear formation (Schirmer test) in atropine sulfate model of dry eye disease; assay type: in vivo; conditions: 30 μL eye drops four times per day after atropine sulfate 1%, seven days
# Protocol: Next, the effect on tear formation of treatment with the compound of Formula I was examined. Rabbits were placed in a restraining device, and atropine sulfate 1% ophthalmic solution (30 μL) was instilled into the lower conjunctival sac of each eye four times per day. Fifteen minutes after the administration of each dose of atropine sulfate, each eye received 30 μL of eye drops containing the active ingredient, vehicle, or saline. Tear volume was then evaluated by the Schirmer test (FIG. 2). Schirmer strips were carefully placed in the posterior (i.e., temporal) lower fornix for 60 seconds, and the wetted area was read in millimeters as an index of tear volume.
# [7] = test system: cynomolgus monkeys with unilateral (OS) ocular hypertension; test: diurnal intraocular pressure during 4-week topical ocular treatment in ocular hypertensive monkeys; assay type: in vivo; conditions: 4 weeks
# Text: To test the effect of the compound of Formula I on intraocular pressure (IOP), eight female cynomolgus monkeys with unilateral (OS) ocular hypertension induced by prior photocoagulation (laser) procedure to the trabecular meshwork (TM) were used at an age between 11 and 14 years at the start of the study. Laser induced ocular hypertension had been created at least 9 years earlier in the study animals. Animals and treatments were randomized according to a 4×4 replications Williams-type Latin Square design layout. Following random assignment of a number between 1 and 8, the eight primates were randomized two each into four treatment groups (A-D), with treatments masked for the investigators until all data had been collected and entered into a database. […]
# Conscious animals were seated in custom-designed chairs, and […] was measured with a pneumatonometer (Classic 30, Reichert Depew) after topical application of proparacaine hydrochloride (0.13%) in both eyes (FIG. 1). […] During run-in and treatment periods, diurnal IOP was determined two times per week at approximately 8:30 am, 1 pm, and 5 pm. For each animal bilateral tonometry was followed immediately by topical instillation of the appropriate drug formulation A, B, C, or D. During washout periods, diurnal IOP was measured once per week in both eyes at approximately 8:30 am, 1 pm, and 5 pm.
# [8] = plasma exposure after BID eyelid cream administration in minipigs; assay type: in vivo, Hanford minipigs
# Protocol: as §1
# Three different extraction and analytical methods were developed for the determination of the compound of Formula I in i) plasma and aqueous humor; ii) bulbar conjunctiva, cornea, ICB; iii) eyelids. Assay ranges were 0.1-100 ng/mL, 1-1000 ng/g, and 1-1000 ng/g, respectively. Briefly, analytical methods were as follows: i) plasma and aqueous humor standards were from minipig and rabbit, respectively; ii) bulbar conjunctiva, cornea, ICB standard was rabbit cornea; iii) eyelid standard was pig skin. The internal standard working solution for analytical purposes was comprised of 20.0 ng/mL ^13C2, ^15N-labeled compound of Formula I in acetonitrile with 1% formic acid (v/v) which was being added to each sample. […]
# glucocorticoid receptor [9] = target: T1, glucocorticoid receptor; conditions: number of assays; cited from earlier work
# [10] = solubility limit in receptor fluid; assay type: physicochemical; conditions: not told, aqueous with cosolvent or surfactant or cyclodextrin; phosphate-buffered saline pH 7.4 with 0.01 wt % Na azide and 1 wt % Brij 020
# [11] = 46 hours after 10 μL of 2% cream on epidermal surface, 6 replicates
smiles,measurement,setting,value
"C[C@@H]1C[C@H]2[C@@H]3C[C@H](F)C4=CC(=O)C=C[C@]4(C)[C@@]3(F)[C@@H](O)C[C@]2(C)[C@@]1(OC(=O)C1C(C)(C)C1(C)C)C(=O)OCC#N [compound of Formula I, 6α,9α-difluoro-11 β-hydroxy-16α-methyl-3-oxo-17α-(2,2,3,3-tetramethycyclopropylcarbonyl)oxy-androsta-1,4-diene-17β-carboxylic acid cyanomethyl ester]",anti-inflammatory activity in models of lung inflammation,[1],potent anti-inflammatory activity
same,anti-inflammatory activity in models of lung inflammation,[2],potent anti-inflammatory activity
same,highest mean concentration in eyelid tissue,"[3]; 4 hours post final dose, 2% cream, 15 applications over 7.5 days",30613 ng/g
same,concentration at 8 h,"[3]; Hanford, minipig, aqueous humor, topical, BID, 2% cream, 15 applications over 7.5 days, read-out: mean concentration in aqueous humor",5.81 ng/g
same,concentration at 4 h,"[3]; Hanford, minipig, bulbar conjunctiva, topical, BID, 4 hours post final dose, 2% cream, 15 applications over 7.5 days",1930 ng/g
same,concentration at 8 h,"[3]; Hanford, minipig, cornea, topical, BID, 2% cream, 15 applications over 7.5 days, read-out: mean concentration in cornea",452 ng/g
same,concentration at 24 h,"[3]; Hanford, minipig, iris/ciliary body (ICB), topical, BID, 24 hours post final dose, 2% cream, 15 applications over 7.5 days",20.5 ng/g
same,exposure levels in each compartment over time,"[3]; eyelids, conjunctiva, cornea, ICB, aqueous humor, post final peri-ocular dose",remained almost constant for up to 24 hours
same,fraction unbound,protein binding,~0.01
same,glucocorticoid receptor-mediated transrepression activity,glucocorticoid receptor [4],close to full agonism
same,detection in transdermal receptor fluid,"[5]; 4, 8, 24 and 46 hours after application of 2% cream",not in the transdermal receptor fluid
same,accumulated amount in the dermis,[5]; [11],0.73+/−0.21 μg/cm^2
same,accumulated amount in the epidermis,[5]; [11],2.89+/−0.32 μg/cm^2
same,"transrepression of NFκB pathway activation (IL-6, IL-8 release)",NFκB pathway,potently and efficiently transrepress
same,tear formation (Schirmer test),[6],prevented a decrease in tear formation similar to topical dexamethasone
same,IOP compared with dexamethasone treatment,"[7]; 10 mg/mL suspension vs MAXIDEX 1 mg/mL, TID",significantly lower than dexamethasone treatment
same,effect on intraocular pressure (IOP),"[7]; 10 mg/mL suspension, 25 μL OU TID, topical to the eye",did not result in increased IOP
same,highest plasma concentration,[8]; 24 hours following the final Day 8 dose,2.22 ng/mL
same,systemic accumulation,[8]; after 7.5 days of multiple topical eyelid application,no or very low systemic accumulation
same,plasma exposure,"[8]; up to 24 hours after last application, LLOQ 0.1 ng/mL",generally low or below the lower limit of quantification
same,glucocorticoid receptor-mediated transactivation,glucocorticoid receptor [9],partial response
same,solubility,[10],~35.8 µg/mL
"CCC(=O)O[C@]1(C(=O)SCF)[C@H](C)C[C@H]2[C@@H]3C[C@H](F)C4=CC(=O)C=C[C@]4(C)[C@@]3(F)[C@@H](O)C[C@@]21C [FP, fluticasone propionate, reference compound]","transrepression of NFκB pathway activation (IL-6, IL-8 release)",NFκB pathway,potently and efficiently transrepress
